The text below walks through data of PubChem BioAssay (NCI).

Molecules are shown by their SMILES. “And” between values parts separate entries of the source, which are not always exact repeats. Equal values may be shown once.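 Assay format: 96-well plates, 48-hour exposure. Here, GI50 denotes the concentration required for 50% inhibition of growth. TGI: total growth inhibition.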

Common to all, as to experiment: inhibition of tumour cell growth, NCI panel, 48 h
Assay [1] concerns A498 renal.
For assay [2], the system named is CAKI-1 renal.
For assay [3], the system named is EKVX NSCLC.
Assay [4] deals with NCI-H460 lung.
Assay [5] concerns OVCAR-8 ovarian.
Assay [6] relates to SNB-75 CNS.
Assay [7] relates to TK-10 renal.
Assay [8] concerns U251 CNS.
Assay [9] relates to SK-MEL-2 melanoma.
In assay [10] the test system is SK-OV-3 ovarian.

As to `COc1cc(CCc2ccc(OCCN(C)C)cc2)cc(OC)c1OC`, the TGI in [1], in assay [2], in assay [3], in assay [4], in [5] and in assay [6] was > 100 µM each time. Also, the TGI in assay [7] and in assay [8] was > 100 µM each time.

On to `Cc1ccc(-[n+]2c3cc(N)c(C)cc3nc3cc(C)c(Nc4ccccc4)cc32)cc1`, for which the GI50 in [1] is 0.119 µM; in [2] it was 0.173 µM; in assay [3], 0.0651 µM; in assay [5], 0.103 µM; in [9], 0.235 µM; in assay [10], 0.258 µM. The GI50 in assay [6] was 0.154 µM; in [7], 0.148 µM. In addition, the TGI in [1] was 0.438 µM; in [2] it was 0.461 µM; in assay [3], 1.03 µM; in [5] it was > 100 µM; in [9], 0.538 µM; in [10] it was 1.62 µM. Also, the TGI in assay [6] came out at 0.419 µM; in [7], 1.04 µM.

Consider `CC(=O)Nc1ccc2c(c1)c(C1=C(c3cn(C)c4ccccc34)C(=O)NC1=O)cn2C`, for which the GI50 in assay [1] was 0.538 µM; in assay [2] it was 1.07 µM; in assay [4] it was 0.986 µM; in assay [5], 2.68 µM; in assay [9], 0.94 µM; in [10] it was 1.22 µM. Also, the GI50 in assay [6] was 0.465 µM; in assay [7], 4.21 µM; in [8], 1.16 µM. The TGI in assay [1] was 1.79 µM; in assay [2] it was 24.3 µM; in [4] it was > 25 µM; in assay [5], > 25 µM; in [9], 5.74 µM; in assay [10], > 25 µM. The TGI in [6] was > 6.67 µM; in [7], > 25 µM; in assay [8] it was > 25 µM.

As for `CC1=C(C)C(=O)c2c(cc3ccc4ccccc4n23)C1=O`, the TGI in [1], in assay [3], in assay [4], in assay [5], in [10] and in assay [6] was > 100 µM each time. In addition, the TGI in [7] and in [8] was > 100 µM throughout.

In the case of `O=C(c1ccccc1)C(c1ccccc1)C1(O)C(=O)Nc2c(Cl)cc(Cl)cc21` (centres undefined), the TGI in [2] was 40.1 µM; in [3], 27.8 µM; in [4], > 100 µM; in assay [5], 32.9 µM; in assay [9], 33 µM; in [10], 70.1 µM. For the same molecule, the TGI in assay [6] worked out at 39.7 µM; in assay [7], 41.2 µM; in [8], 96.6 µM.

`O=C(c1ccccc1)C(C(=O)c1ccccc1)C1(O)C(=O)c2ccccc2C1=O`: the TGI in assay [1], in [3], in assay [5], in assay [9], in assay [10] and in assay [6] was > 100 µM in each case. The figures for the TGI in assay [7] and in assay [8] were 55.2 µM and > 100 µM, respectively.

In the case of `CN(C)c1cccc2c(S(=O)(=O)N[C@H]3CC[C@H]4[C@@H]5CCc6cc(O)ccc6[C@H]5CC[C@]34C)cccc12`, the GI50 in [1] was 1.75 µM; in assay [2] it was 2.05 µM; in assay [4] it was 2 µM; in assay [5], 3.3 µM; in [9], 2.37 µM; in [10], 3.83 µM. The GI50 is 1.75 µM in [6], 3.2 µM in [7] and 2.94 µM in [8]. Also, the TGI is 4 µM in [1]; 7.43 µM in [2]; 4.52 µM in assay [4]; 15.9 µM in assay [5]; 5.48 µM in assay [9]; 74.3 µM in assay [10]. Moreover, the TGI in assay [6] is 9.52 µM; in assay [7], 9.82 µM; in assay [8], 10.4 µM.

Consider `COc1ccc(Cl)cc1Nc1nc(C(F)(F)F)ccc1C(=O)N/N=C/c1c(Cl)cccc1Cl`, for which the GI50 in [1] is 12.3 µM; in [2] it was 9.74 µM; in assay [4] it was 4.52 µM; in assay [9], 5.62 µM; in [10] it was 7.67 µM; in assay [6], 11.9 µM. Moreover, the GI50 in assay [7] was 6.32 µM; in assay [8], 4.97 µM. For the same molecule, the TGI in [1] is > 100 µM; in assay [2], > 100 µM; in assay [4], > 100 µM; in assay [9], > 100 µM; in [10] it was > 100 µM; in assay [6], 42.3 µM. Moreover, the TGI was 50.8 µM in [7] and > 100 µM in assay [8].

For `COc1cc(C2C=C(c3cccc(NC(C)=O)c3)Nc3ncnn32)cc(OC)c1OC` (centres undefined), the GI50 in assay [1] was 0.242 µM; in assay [2], 0.573 µM; in assay [3], 0.737 µM; in assay [4], 2.14 µM; in [5] it was 0.327 µM; in [10], 0.903 µM. In addition, the GI50 was 4.14 µM in assay [6], 7.55 µM in assay [7] and 0.395 µM in [8]. Further, the TGI in assay [1] was 4.67 µM; in [2], > 100 µM; in [3], > 100 µM; in [4], > 100 µM; in assay [5], > 100 µM; in [10] it was > 100 µM. The TGI in [6], in assay [7] and in assay [8] was > 100 µM throughout.

Turning to `N#Cc1cn(C2OC(CO)C(O)C2O)c2ncnc(N)c12` (centres undefined), the GI50 is 0.045 µM in assay [1]; 0.0705 µM and 0.045 µM and < 0.01 µM in [2]; < 0.0141 µM in assay [4]; 0.0469 µM and 0.045 µM in assay [5]; 0.108 µM in assay [10]; 0.232 µM in [6]. Also, the GI50 in assay [7] is 0.000405 µM; in assay [8], 0.0276 µM. For the same molecule, the TGI in [1] was 1.51 µM and 0.634 µM; in assay [5], 0.889 µM and 0.178 µM; in assay [7], 0.0771 µM.

As to `COc1ccc2c(c1)/C(=C\c1c(C)nc3sc(C)cn13)C(=O)N2C`, the GI50 in [2] is 1.33 µM; in assay [3] it was 16.7 µM; in [4], 3.54 µM; in assay [5], 6.14 µM; in assay [9], 9.57 µM; in assay [10], 2.35 µM. Moreover, the GI50 in assay [6] is 5.88 µM; in assay [7] it was 4.35 µM; in [8], 3.69 µM. Also, the TGI was 4.33 µM in assay [2]; 73.8 µM in assay [3]; 36.6 µM in assay [4]; > 100 µM in [5]; > 100 µM in assay [9]; 7.18 µM in assay [10]. For the same molecule, the TGI in [6] turned out to be 51.2 µM; in [7] it was 37.8 µM; in [8], 31.2 µM.

For `O=c1oc2cc(OS(=O)(=O)c3ccc(F)cc3)ccc2c2c1CCCCC2`, the GI50 in assay [1], in assay [2], in [4], in [5], in assay [9] and in assay [10] was > 100 µM in each case. Moreover, the GI50 is 19.6 µM in assay [6], > 100 µM in assay [7] and > 100 µM in [8]. For the same molecule, the TGI in assay [1], in assay [2], in assay [4], in assay [5], in assay [9] and in assay [10] was > 100 µM each time. Besides, the TGI in assay [6], in [7] and in assay [8] was > 100 µM throughout.

For the molecule `CNC(P(=O)([O-])[O-])P(=O)([O-])[O-].N.N.[Pt+2]`, the GI50 in assay [2] is > 100 µM; in assay [3] it was > 100 µM; in assay [4], 51.2 µM; in assay [5], > 100 µM; in assay [9], > 100 µM; in [6], > 100 µM. Besides, the GI50 in assay [7] and in [8] was > 100 µM each time. Moreover, the TGI in [2], in [3], in assay [4], in assay [5], in assay [9] and in assay [6] was > 100 µM in each case. Further, the TGI in assay [7] and in assay [8] was > 100 µM in each case.

Regarding `Cc1cc(C)nc(NS(=O)(=O)c2ccc(Nc3c4ccccc4nc4c(C(=O)Nc5ccc(S(=O)(=O)N=C(N)N)cc5)ccc(Cl)c34)cc2)n1`, the TGI in [1] was > 100 µM; in assay [2], > 100 µM; in [3] it was > 100 µM; in [4] it was > 100 µM; in [5], 33.4 µM; in assay [10], 51 µM. Besides, the TGI in [6] is > 100 µM; in [7] it was 95.5 µM; in [8] it was 34.6 µM.

Consider `COC(=O)N[C@H]1CCc2c(Br)c(OC)c(OC)c(OC)c2-c2ccc(SC)c(=O)cc21`, for which the GI50 in assay [1] was < 0.01 µM; in assay [2], < 0.0209 µM; in [3], < 0.01 µM; in [4], < 0.01 µM; in assay [5], < 0.01 µM; in assay [10] it was < 0.01 µM. Further, the GI50 in [6] was < 0.01 µM; in [7] it was 9.63 µM; in [8], < 0.01 µM. Besides, the TGI is < 0.01 µM in [1]; 21.9 µM in assay [2]; > 85.4 µM in [3]; 10.7 µM in [4]; > 77.2 µM in [5]; > 100 µM in assay [10]. Moreover, the TGI in [6] was 20.9 µM; in assay [7], > 85.9 µM; in assay [8] it was 15 µM.
